Key:
[1] = test system: IFN-γ production by OvA-stimulated splenocytes; assay: OvA-stimulated production of IFN-γ by splenocytes of OvA-immunized mice; assay type: in vivo
[2] = test system: IL-4 production by ConA-stimulated splenocytes; assay: IL-4 production by ConA-stimulated splenocytes (EIA); assay type: in vivo, mice
[3] = OvA/Alum, 0.1 μg/kg i/p, OvA 25 μg/ml
[4] = OvA/Alum, 0.1 μg/kg i/p, OvA 50 μg/ml
[5] = OvA/Alum, 0.1 μg/kg i/p, OvA 100 μg/ml
[6] = OvA/Alum, 1.0 μg/kg i/p, OvA 25 μg/ml
[7] = OvA/Alum, 1.0 μg/kg i/p, OvA 50 μg/ml
[8] = OvA/Alum, 1.0 μg/kg i/p, OvA 100 μg/ml

N[C@H](CCC(=O)N[C@@H](Cc1c[nH]c2ccccc12)C(=O)O)C(=O)O [SCV-07, γ-D-glutamyl-L-tryptophan]
Production of IFN-γ by splenocytes [1, 3]: 8028 pg/mL
Production of IFN-γ by splenocytes, % (% of control) [1, 3]: 85.7%
Production of IFN-γ by splenocytes [1, 4]: 8028 pg/mL
Production of IFN-γ by splenocytes, % (% of control) [1, 4]: 85.7%
Production of IFN-γ by splenocytes [1, 5]: 8048 pg/mL
Production of IFN-γ by splenocytes, % (% of control) [1, 5]: 85.9%
Production of IFN-γ by splenocytes ([1]; OvA/Alum, 0.1 μg/kg per os, OvA 0 μg/ml): 4642 pg/mL
Production of IFN-γ by splenocytes ([1]; OvA/Alum, 0.1 μg/kg per os, OvA 10 μg/ml): 5775 pg/mL
Production of IFN-γ by splenocytes ([1]; OvA/Alum, 0.1 μg/kg per os, OvA 25 μg/ml): 6969 pg/mL
Production of IFN-γ by splenocytes ([1]; OvA/Alum, 0.1 μg/kg per os, OvA 50 μg/ml): 6969 pg/mL
Production of IFN-γ by splenocytes ([1]; OvA/Alum, 0.1 μg/kg per os, OvA 100 μg/ml): 7310 pg/mL
Production of IFN-γ by splenocytes ([1]; OvA/Alum, 1.0 μg/kg i/p, OvA 0 μg/ml): 7129 pg/mL
Production of IFN-γ by splenocytes ([1]; OvA/Alum, 1.0 μg/kg i/p, OvA 10 μg/ml): 9986 pg/mL
Production of IFN-γ by splenocytes [1, 6]: 7982 pg/mL
Production of IFN-γ by splenocytes, % (% of control) [1, 6]: 112.0%
Production of IFN-γ by splenocytes [1, 7]: 7982 pg/mL
Production of IFN-γ by splenocytes, % (% of control) [1, 7]: 112.0%
Production of IFN-γ by splenocytes [1, 8]: 8155 pg/mL
Production of IFN-γ by splenocytes, % (% of control) [1, 8]: 114.4%
Production of IFN-γ by splenocytes ([1]; OvA/Alum, 1.0 μg/kg per os, OvA 0 μg/ml): 5620 pg/mL
Production of IFN-γ by splenocytes ([1]; OvA/Alum, 1.0 μg/kg per os, OvA 10 μg/ml): 5523 pg/mL
Production of IFN-γ by splenocytes ([1]; OvA/Alum, 1.0 μg/kg per os, OvA 25 μg/ml): 5795 pg/mL
Production of IFN-γ by splenocytes ([1]; OvA/Alum, 1.0 μg/kg per os, OvA 50 μg/ml): 5795 pg/mL
Production of IFN-γ by splenocytes ([1]; OvA/Alum, 1.0 μg/kg per os, OvA 100 μg/ml): 6860 pg/mL
Production of IFN-γ by splenocytes ([1]; OvA/Alum, 10.0 μg/kg per os, OvA 0 μg/ml): 4266 pg/mL
Production of IFN-γ by splenocytes ([1]; OvA/Alum, 10.0 μg/kg per os, OvA 10 μg/ml): 2045 pg/mL
Production of IFN-γ by splenocytes ([1]; OvA/Alum, 10.0 μg/kg per os, OvA 25 μg/ml): 5066 pg/mL
Production of IFN-γ by splenocytes ([1]; OvA/Alum, 10.0 μg/kg per os, OvA 50 μg/ml): 5066 pg/mL
Production of IFN-γ by splenocytes ([1]; OvA/Alum, 10.0 μg/kg per os, OvA 100 μg/ml): 5976 pg/mL
Production of IFN-γ by splenocytes, % (% of control) ([1]; OvA/FA, 0.1 μg/kg i/p, OvA 10 μg/ml): 126.6%
Production of IFN-γ by splenocytes, % (% of control) ([1]; OvA/FA, 0.1 μg/kg i/p, OvA 25 μg/ml): 89.3%
Production of IFN-γ by splenocytes, % (% of control) ([1]; OvA/FA, 0.1 μg/kg i/p, OvA 50 μg/ml): 118.0%
Production of IFN-γ by splenocytes, % (% of control) ([1]; OvA/FA, 0.1 μg/kg i/p, OvA 100 μg/ml): 124.3%
Production of IFN-γ by splenocytes, % (% of control) ([1]; OvA/FA, 1.0 μg/kg i/p, OvA 10 μg/ml): 139.0%
Production of IFN-γ by splenocytes, % (% of control) ([1]; OvA/FA, 1.0 μg/kg i/p, OvA 25 μg/ml): 112.2%
Production of IFN-γ by splenocytes, % (% of control) ([1]; OvA/FA, 1.0 μg/kg i/p, OvA 50 μg/ml): 99.0%
Production of IFN-γ by splenocytes, % (% of control) ([1]; OvA/FA, 1.0 μg/kg i/p, OvA 100 μg/ml): 89.6%
IL-4 ([2]; ConA 1 μg/ml, 0.01 μg/kg per os): 98.7 pg/mL
IL-4 ([2]; ConA 1 μg/ml, 0.1 μg/kg i/p): 62.1 pg/mL
IL-4 ([2]; ConA 1 μg/ml, 0.1 μg/kg per os): 78.9 pg/mL
IL-4 ([2]; ConA 1 μg/ml, 1.0 μg/kg i/p): 52.8 pg/mL
IL-4 ([2]; ConA 1 μg/ml, 1.0 μg/kg per os): 95.8 pg/mL
IL-4 ([2]; ConA 1 μg/ml, 10.0 μg/kg per os): 53.8 pg/mL
IL-4 ([2]; ConA 1 μg/ml, 100.0 μg/kg per os): 83.1 pg/mL
IL-4 ([2]; ConA 5 μg/ml, 0.01 μg/kg per os): 284.9 pg/mL
IL-4 ([2]; ConA 5 μg/ml, 0.1 μg/kg i/p): 277.5 pg/mL
IL-4 ([2]; ConA 5 μg/ml, 0.1 μg/kg per os): 229.6 pg/mL
IL-4 ([2]; ConA 5 μg/ml, 1.0 μg/kg i/p): 152.9 pg/mL
IL-4 ([2]; ConA 5 μg/ml, 1.0 μg/kg per os): 260.0 pg/mL
IL-4 ([2]; ConA 5 μg/ml, 10.0 μg/kg per os): 275.0 pg/mL
IL-4 ([2]; ConA 5 μg/ml, 100.0 μg/kg per os): 192.0 pg/mL
IL-4 ([2]; Spontaneous, 0.01 μg/kg per os): 6.1 pg/mL
IL-4 ([2]; Spontaneous, 0.1 μg/kg i/p): 4.2 pg/mL
IL-4 ([2]; Spontaneous, 0.1 μg/kg per os): 0.0 pg/mL
IL-4 ([2]; Spontaneous, 1.0 μg/kg i/p): 0.0 pg/mL
IL-4 ([2]; Spontaneous, 1.0 μg/kg per os): 25.3 pg/mL
IL-4 ([2]; Spontaneous, 10.0 μg/kg per os): 19.4 pg/mL
IL-4 ([2]; Spontaneous, 100.0 μg/kg per os): 27.1 pg/mL
